In data set [1] the test system is Candida albicans. The data set is described as follows: microbe, parasite or virus in culture. It is filed as cell-based. The procedure:
Candida albicans (ATCC© 10231™ distributed by LGC Standards, Molsheim, France) was cultured in Sabouraud medium (Sigma-Aldrich) supplemented with tetracycline (10 μg/mL) and cefotaxime (10 μg/mL) at 37° C. for 24 h. Candida albicans (OD600 nm=0,001) were plated in 96-well plates and treated either with different concentrations of the peptides of interest, and/or with different concentrations of voriconazole (VCZ) (Sigma-Aldrich). As a positive control, cells were treated with 10 μg/mL VCZ. After 24 h incubation, yeast growth was assessed by optical density OD600 nm using a spectrophotometer (Multiscan EX, Shanghai, China).
The MFC is defined as the lowest concentration of peptide able to inhibit 100% of yeasts, and determined using a modified Gompertz model as described in Lambert et Pearson (Lambert and Pearson 2000, J Appl Microbiol, 88(5): 784-790).
The efficiency of the combination D-CTL/VCZ was determined by the calculation of the Fractional inhibitory concentration (FIC) index according to the following formula: FICI=FICD-CTL+FICVCZ. According to EUCAST (European Committee on Antimicrobial Suscpetibility Testing), the effect of the combination is synergistic if FICI≤0,5, additive if 0,5<FICI≤1, indifferent if 1<FICI<2, antagonistic if FICI≥2^40-41. • Results D-CTL Inhibits the Groth of C. albicans

The subject of data set [2] is Escherichia coli. Nature of the data set: microbe, parasite or virus in culture. Conditions: 24 h. The procedure: (§1) E. coli K-12 mutant E2146 was kindly provided by the Institut Pasteur of Paris. […] It is resistant to specific antibiotics, i.e. ampicillin, chloramphenicol, and kanamycin.
(§2) MIC was determined by broth microdilution. […] Experiments were performed with biological replicates.

Data set [3] has as its system E. coli (ATCC 25922). Nature of the data set: Resistance acquisition assay. It is filed as cell-based, Escherichia coli. Particulars: E. coli wild type cultured at sub-MIC (½ MIC) concentrations, day 28. As for the experimental part:
FIG. 1: Resistance acquisition assay of E. coli in the presence of D-CTL compared to ampicillin and cefotaxim. Bacteria were cultured in the presence of ½ MIC of the antibacterial agent for […]. The fold change in MIC was evaluated at the indicated days. The graph is representative of two experiments done independently.
E. coli (ATCC® 25922™ ) strain was sequentially passaged every day in the presence of the different antibacterial compounds: D-CTL, ampicillin or cefotaxime at ½ MIC during 28 days. The changes in the MICs were determined as previously described by broth microdilution at the indicated times.

A short description of data set [4]: Peptide stability assay towards bacterial virulence factors (supernatants) using HPLC. It is filed as in vitro ADME. Particulars: 24 hours. As for the experimental part:
FIG. 5: Stability of D-CTL and L-CTL towards the virulence factors of different bacterial strains. […] Chromatograms 1 correspond to supernantant only, chromatograms 2 correspond to supernatant and peptide and chromatograms 3 corresponds to peptide only.
Bacteria were then centrifuged for lmin at 13000rpm and the supernatant filtered using a 0,2 μm Millex filter (Merck-Millipore) to remove any residual bacteria.

The conditions of data set [5]: 300 μg/mL, 37° C., 24 h, HPLC. The procedure: (§3) The samples were analyzed by HPLC (Dionex, Ultimate 3000, CA USA) using a Nucleosil reverse-phase 300-5C18-colum (4,6×250 mm; particle size: 5 μm; porosity, 300 Å) (Macherey Nagel, France). Two solvents used were: 0.1% (v/v) TFA in water (Solvent A) and 0.09% (v/v) TFA in 70% (v/v) acetonitrile-water (solvent B). Absorbance was measured at 214 nm (A214 nm). The flow rate for elution was 0,7 mL/min with a gradient of solvent B as indicated on the chromatograms.

The conditions of data set [6]: 19 μg peptide in 100 μL supernatant, 37° C., 24 h, HPLC. From the text:
Absence of growth was interpreted as lack of viable microorganism.
Absorbance was monitored at 214 nm and the solvent system consisted of 0.1% (v/v) TFA in water (solvent A) and 0.09% (v/v) TFA in 70% (v/v) acetonitrile-water (solvent B).

For data set [7] the following is noted: Ca(OH)2 0,85 g/L pH 8,5, ½ MIC of D-CTL, HPLC. As for the experimental part: The samples were then analyzed by HPLC. Chromatogram 1 corresponds to D-CTL, chromatogram 2 corresponds to D-CTL diluted in a saturated solution of Ca(OH)2 (pH 9). Absorbance is expressed in Unity of Milli-Absorbance (UmA) depending on the time in minutes (min).
Regarding the stability of D-CTL in Ca(OH)2, the peptide was incubated in a buffered Ca(OH)2 solution at 37° C. for 24 h. The pH of the Ca(OH)2 solution was buffered at the same pH than the one determined during the broth dilution assays. As negative controls, D-CTL in water was also incubated at 37° C. for 24 h.
as §3

Data set [8] has as its system Enterococcus faecalis. It is filed as cell-based. Conditions: for bacterial growth inhibition of E. faecalis: peptides at 200 μg/mL. As for the experimental part:
Enterococcus faecalis (CCM 2541) was obtained from the Czechoslovac Collection of Microorganisms (Czech Republic) Bacteria were cultured in Anaerobe Basal Broth (Oxoid, France) at 37° C. in anaerobic conditions. Candida albicans (ATCC© 10231™) was cultured in Sabouraud medium (BD, France) supplemented with tetracycline (10 μg/mL) and cefotaxime (10 μg/mL).
An overnight culture of each pathogen was diluted (OD600 nm=0.001) and incubated at 37° C. in 96-plates in the presence of different concentrations of antimicrobial agents. When testing Ca(OH)2, the pH of the solution was measured with by pH meter. (CyberScan pH 510©, Eutech, France). After 24 h incubation, the OD620 nm was evaluated with a spectrophotometer (Multikan EX, ThermoScientific, France). Each assay was done at least in triplicate. For each set of assay, the standard deviation was determined.

The test system of data set [9] is Prevotella intermedia. Conditions: 24 h. As for the experimental part:
as §1, §2
(§4) To this aim, they determined the Fractional Inhibitory Concentration Index (FICI) of the combination between D-CTL and each antibiotic of reference.

The subject of data set [10] is Fusobacterium nucleatum. Particulars: 24 h. As for the experimental part: as §1, §2, §4
For data set [11], the system named is Escherichia coli Amp^R Kan^RChlo^R. Conditions: Escherichia coli Amp^R Kan^R Chlo^R (multi-resistant), 24 hours incubation. As for the experimental part:
as §1, §2, §4

In data set [12] the test system is Staphylococcus aureus (MSSA). The data set is described as follows: microbe, parasite or virus in culture. The procedure: as §1, §2, §4
The subject of data set [13] is Parvimonas micra. Nature of the data set: microbe, parasite or virus in culture. The procedure: as §1, §2, §4
For data set [14] the following is noted: saliva from ten healthy volunteers, 24 hours.
Protocol: Saliva from ten healthy volunteers was incubated with D-CTL or L-CTL for 24 hours and peptide stability was then assessed by LC-SRM. The analyses were performed on an Agilent 1100 Series HPLC system hyphenated to a QQQ-6490 triple quadrupole (Agilent Technologies). A total of 48 transitions (6 precursors) were monitored in an unscheduled mode within a total cycle time of 3 000 ms.
All samples were centrifuged at 14 000 g during 5 min at +4° C. and then diluted 3 times in water with 0.1% (v/v) HCOOH. For each sample, 2 μL were injected on the LC-SRM system. All separations were carried out on Agilent 1100 Series HPLC system (Agilent Technologies). For each analysis, the sample was loaded into a trapping column ZORBAX 300SB-C18 MicroBore Guard 5 gm, 1.0×17 mm (Agilent Technologies) at 50 μL/min with aqueous solution containing 0.1% (v/v) HCOOH and 2% CH3CN. After 3 min trapping, the column was put on-line with a ZORBAX 300SB-C18 3.5 μm, 0.3×150 mm column (Agilent Technologies). […]
For LC-SRM assay, each peptide was targeted with either an oxidized or non-oxidized state [[sequence]]. […] For each of the 6 precursors, 8 transitions were monitored (48 transitions in total) on a QQQ-6490 triple quadrupole mass spectrometer (Agilent technologies) in unscheduled mode and within a cycle time of 3 000 s. […] The reference value was calculated using the equation given by the supplier. […]
The test system of data set [15] is Staphylococcus aureus (MRSA). The data set is described as follows: microbe, parasite or virus in culture. Conditions: 24 h. As for the experimental part: as §1, §2, §4

Converted amounts (≈) assume the structure as drawn. Where a SMILES comes first, the peptide text is derived from it. [ ]: non-standard residue; d: D form.

On to `C[C@@H](c1ncncc1F)[C@](O)(Cn1cncn1)c1ccc(F)cc1F` [VCZ, voriconazole], for which, in data set [1] (Candida albicans, 24 h, modified Gompertz model, read-out: minimal fungicidal concentration (MFC)), the MFC came to 0.07 mg/L. Moreover, the FIC in data set [1] (combination D-CTL/VCZ on Candida albicans) amounted to 0.25.
`NC[C@H]1O[C@H](O[C@H]2[C@H](O)[C@@H](O[C@H]3O[C@H](CO)[C@@H](O)[C@H](N)[C@H]3O)[C@H](N)C[C@@H]2N)[C@H](O)[C@@H](O)[C@@H]1O` [Kanamycin] registered an MIC in [2] (Escherichia coli) of 21.6 mg/L (≈ 44.6 µM).
As to `CC1(C)S[C@@H]2[C@H](NC(=O)[C@H](N)c3ccccc3)C(=O)N2[C@H]1C(=O)O` [Ampicillin], the “change in MIC over the culture” value in data set [3] was 3 times the MIC.
With `CSCC[C@@H](NC(=O)[C@@H](CO)NC(=O)[C@H](N)CCCNC(=N)N)C(=O)N[C@H](CCCNC(=N)N)C(=O)N[C@H](CC(C)C)C(=O)N[C@H](CO)C(=O)N[C@H](Cc1ccccc1)C(=O)N[C@H](CCCNC(=N)N)C(=O)N[C@H](C)C(=O)N[C@H](CCCNC(=N)N)C(=O)NCC(=O)N[C@H](Cc1ccc(O)cc1)C(=O)NCC(=O)N[C@H](Cc1ccccc1)C(=O)N[C@H](CCCNC(=N)N)C(=O)O` [D-CTL] (H-[dR][dS][dM][dR][dL][dS][dF][dR][dA][dR]G[dY]G[dF][dR]-OH; N-terminus and C-terminus assumed), the “degradation in bacterial supernatants” value in data set [4] (all bacterial supernatants tested, 37° C.) is recorded as “not degraded”. In data set [5], the “degradation in the supernatant of E. faecalis” value is “not degraded”. For the same molecule, the “stability in the supernatant of Candida albicans” value in [6] is “remains stable”. The “stability in a buffered solution of Ca(OH)2” value in data set [7] is recorded as “stable”. Moreover, in [8], the “MIC on E. faecalis” value came out at 156 mg/L (≈ 83.9 µM). The MIC was 8 mg/L (≈ 4.3 µM) in [2]; 10 mg/L in data set [9]; 22.4 mg/L in data set [10]; 8.4 mg/L in data set [11]; 24 mg/L in data set [12] (Staphylococcus aureus (MSSA), 24 hours incubation); 23 mg/L in [13] (24 hours incubation). In addition, the stability in saliva result in data set [14] is listed as “stable”.
Turning to `CO/N=C(\C(=O)N[C@@H]1C(=O)N2C(C(=O)O)=C(COC(C)=O)CS[C@H]12)c1csc(N)n1` [Cefotaxim], the MIC in data set [11] came out at 0.09 mg/L. Further, the “change in MIC over the culture” value in [3] was determined as 3 times the MIC.
Regarding RSMRLSFRARGYGFRGPGLQL [CAT], the “bacterial growth inhibition of E. faecalis” value in data set [8] was “no antimicrobial activity”.
Take `CSCC[C@H](NC(=O)[C@H](CO)NC(=O)[C@@H](N)CCCNC(=N)N)C(=O)N[C@@H](CCCNC(=N)N)C(=O)N[C@@H](CC(C)C)C(=O)N[C@@H](CO)C(=O)N[C@@H](Cc1ccccc1)C(=O)N[C@@H](CCCNC(=N)N)C(=O)N[C@@H](C)C(=O)N[C@@H](CCCNC(=N)N)C(=O)NCC(=O)N[C@@H](Cc1ccc(O)cc1)C(=O)NCC(=O)N[C@@H](Cc1ccccc1)C(=O)N[C@@H](CCCNC(=N)N)C(=O)O` [L-CTL] (H-RSMRLSFRARGYGFR-OH; N-terminus and C-terminus assumed): the “degradation by virulence factors” value in [4] (supernatant of E. coli multiresistant strain) and in data set [4] (supernatant of E. coli wild type strain) was “degraded” throughout. In addition, the “stability in the supernatant of Candida albicans” value in [6] is reported as “degraded”. The MIC was 75 mg/L (≈ 40.3 µM) in data set [2]; 148.6 mg/L in data set [9]; 125.3 mg/L in [10]; 150 mg/L in [11]; 37 mg/L in [15]; 40 mg/L in data set [12] (24 h). Moreover, the MIC in data set [13] (24 hours incubation) worked out at 120 mg/L. Besides, in data set [14], the stability in saliva entry is “unlike L-CTL, D-CTL was stable”.
Take `CN[C@H](CC(C)C)C(=O)N[C@H]1C(=O)N[C@@H](CC(N)=O)C(=O)N[C@H]2C(=O)N[C@H]3C(=O)N[C@H](C(=O)N[C@H](C(=O)O)c4cc(O)cc(O)c4-c4cc3ccc4O)[C@H](O)c3ccc(c(Cl)c3)Oc3cc2cc(c3O[C@@H]2O[C@H](CO)[C@@H](O)[C@H](O)[C@H]2O[C@H]2C[C@](C)(N)[C@H](O)[C@H](C)O2)Oc2ccc(cc2Cl)[C@H]1O` [Vancomycin]: the MIC in [15] (Staphylococcus aureus, MRSA) is 0.8 mg/L.
For the molecule `COc1cccc(OC)c1C(=O)N[C@@H]1C(=O)N2[C@@H]1SC(C)(C)[C@@H]2C(=O)O` [Methicillin], the MIC in data set [12] (Staphylococcus aureus, MSSA, 24 h) amounted to 1.2 mg/L.
On to “RILSILRHQNLLKELQDLAL [CHR, bovine chromofungin bCgA47-70]”, for which, in data set [8], the “bacterial growth inhibition of E. faecalis” value is on record as “no antimicrobial activity”.
As for `CC1(C)S[C@@H]2[C@H](NC(=O)[C@H](N)c3ccc(O)cc3)C(=O)N2[C@H]1C(=O)O` [Amoxicillin], the MIC in [13] (24 h) was found to be 0.45 mg/L.
